Experimental data taken from patent US7160919B2, “C7 lactyloxy-substituted taxanes” (Florida State University Research Foundation, Inc., priority 2004, dated 2007).

Assays:
[1] = tested on: HCT116 cells; experiment: In vitro cytotoxicity, cell colony formation assay (HCT116); type: cell-based; settings: colonies counted after 7 days, concentration producing 50% inhibition of colony formation
Experimental: (§1) Four hundred cells (HCT116) were plated in 60 mm Petri dishes containing 2.7 mL of medium (modified McCoy's 5a medium containing 10% fetal bovine serum and 100 units/mL penicillin and 100 µg/mL streptomycin). The cells were incubated in a CO2 incubator at 37° C. for 5 h for attachment to the bottom of Petri dishes. The compound identified in Example 1 was made up fresh in medium at ten times the final concentration, and then 0.3 mL of this stock solution was added to the 2.7 mL of medium in the dish. The cells were then incubated with drugs for 72 h at 37° C. At the end of incubation the drug-containing media were decanted, the dishes were rinsed with 4 mL of Hank's Balance Salt Solution (HBSS), 5 mL of fresh medium was added, and the dishes were returned to the incubator for colony formation. The cell colonies were counted using a colony counter after incubation for 7 days. Cell survival was calculated and the values of IC50 (the drug concentration producing 50% inhibition of colony formation) were determined for each tested compound.
(§2) The assays described above were repeated using the compound identified in Example 2. The results of these assays are tabulated below in comparison with data for paclitaxel and docetaxel.

[2] = tested on: VM46 colon cell line; experiment: In vitro cytotoxicity, cell colony formation assay (VM46); type: cell-based; settings: 72 h drug incubation, colonies counted after 7 days, concentration producing 50% inhibition of colony formation
Experimental: as §1
An identical assessment was carried out using the VM46 colon cell line.
as §2

[3] = Homo sapiens, HCT-116, 72 h drug incubation

SMILES	IC50 [1, 3] [nM]	IC50 [2] [nM]	IC50 ([1]; 72 h drug incubation) [nM]	melting point [°C]
CC(=O)O[C@@]12CO[C@@H]1C[C@H](OC(=O)[C@@H](C)O)[C@@]1(C)C(=O)[C@H](O)C3=C(C)[C@@H](OC(=O)[C@H](O)[C@@H](NC(=O)OC(C)(C)C)c4ccco4)C[C@@](O)([C@@H](OC(=O)c4ccccc4)C12)C3(C)C (stereo partly drawn) [7-((R)-(+)-2-hydroxyloxypropionyl)-2-furyl-Docetaxel]	0.05	4.22		
CC(=O)O[C@@]12CO[C@@H]1C[C@H](O)[C@@]1(C)C(=O)[C@H](O)C3=C(C)[C@@H](OC(=O)[C@H](O)[C@@H](NC(=O)OC(C)(C)C)c4ccccc4)C[C@@](O)([C@@H](OC(=O)c4ccccc4)[C@H]21)C3(C)C [Docetaxel, docetaxel, reference compound]		6.7	0.6	
CC(=O)O[C@@]12CO[C@@H]1C[C@H](OC(=O)[C@H](C)O)[C@@]1(C)C(=O)[C@H](O)C3=C(C)[C@@H](OC(=O)[C@H](O)[C@@H](NC(=O)OC(C)(C)C)c4ccco4)C[C@@](O)([C@@H](OC(=O)c4ccccc4)C12)C3(C)C (stereo partly drawn) [7-((S)-(−)-2-hydroxyloxypropionyl)-2-furyl-Docetaxel]	0.17	2.5		174 to 176
CC(=O)O[C@H]1C(=O)[C@@]2(C)[C@H]([C@H](OC(=O)c3ccccc3)[C@]3(O)C[C@H](OC(=O)[C@H](O)[C@@H](NC(=O)c4ccccc4)c4ccccc4)C(C)=C1C3(C)C)[C@]1(OC(C)=O)CO[C@@H]1C[C@@H]2O [Paclitaxel, paclitaxel, reference compound]	2.1	20		
